Measurements from patent US20190111111A1, “Treatment of Cerebral Cavernous Malformations” (The Regents of the University of California, priority 2016, published 2019).
“Also recorded” adds a separate entry of the source.

Legend:
Krit1^ECKO BMEC [1] = experiment: KLF2 and KLF4 mRNA in Krit1^ECKO BMEC (RT-qPCR); format: cell-based, mouse; conditions: in vitro, FIG. 5d
Protocol: (§1) BMEC at passages 1-3 were maintained at 37° C. in 95% air and 5% CO2 and were grown to 85% confluence and treated for 48 h with 5 μM 4-hydroxy-tamoxifen (Sigma, H7904) after which the medium was replaced with medium lacking 4-hydroxy-tamoxifen and cells were harvested after 72 hr in culture. For TSP1 and 3TSR addition experiments, after 24 h in regular medium, the 5 nM mrTSP1 (R&D systems, 7859-TH), 20 nM 3TSR, or vehicle were added. After 48 hr a second dose of TSP1, 3TSR, or vehicle were added and cells were harvested after an additional 24 h (FIG. 11a-11d).
Primary BMEC, human umbilical vein endothelial cells (HUVEC) and freshly isolated brain microvasculature total RNA were isolated using Trizol reagent, according to the manufacturer's protocol (ThermoFisher). For gene expression analysis, single stranded cDNA was produced from 10 ng of total RNA of BMEC using SuperScript III First-Strand synthesis and random primers according to the manufacture's protocol (ThermoFisher). KAPPA SyberFast qPCR kit (Kapa Biosystems) and thermal cycler (CFX96 Real-Time System, Bio-Rad) were used to determine the relative levels of the genes analyzed (primer sequences not shown) according to the manufacturer's protocol. Actin mRNA levels were used as an internal control and the 2^−ΔΔCT method was used for analysis of the data. […]

Krit1^ECKO BMEC [2] = experiment: ZO-1 tight junction staining in BMEC after Krit1 inactivation (immunofluorescence); format: cell-based, mouse
Protocol: as §1
BMEC were grown to confluence on collagen coated cover glass (Fisher Scientific, 12-545-81) and cells were fixed for 10 min at room temperature with 4% paraformaldehyde (PFA) in phosphate-buffered saline (PBS; pH 7.4) and then permeabilized with 0.5% Triton X-100 in PBS for 5 min. […]
The slides were viewed with a high-resolution SP5 confocal microscope (Leica Microsystems) and the images were captured with Leica application suite (LAS) software (Leica Microsystems). […] The quantification analysis was performed using Volocity® software on high-resolution confocal images.

Molecule | rise in KLF2 or KLF4 mRNA following Krit1 inactivation (Krit1^ECKO BMEC [1]) | ZO-1 at BMEC tight junctions following Krit1 inactivation (Krit1^ECKO BMEC [2]; 5 nM mouse recombinant TSP1, Krit1^ECKO BMEC, FIG. 3a) | ZO1 junctional staining following Krit1 inactivation (Krit1^ECKO BMEC [2]; 2 μM SU5416, Krit1^ECKO BMEC, FIG. 13c)
TSP1: mouse recombinant full length thrombospondin 1 (R&D systems, 7859-TH), a large (~450 kDa) glycoprotein | Neither TSP1 nor 3TSR prevented | continuous ZO1 junctional staining; also recorded: prevented the loss of ZO-1 from BMEC tight junctions | –
Cc1cc(C)c(/C=C2\C(=O)Nc3ccccc32)[nH]1 [SU5416, reference compound] | – | – | continuous ZO1 junctional staining
